Measured values taken from US9790201B2, “Piperidine and azepine derivatives as prokineticin receptor modulators” (TAKEDA PHARMACEUTICAL COMPANY LIMITED, priority 2013, dated 2017).
Where a name gives a salt, the structure may show the parent alone.

target: human PKR1 receptors (Homo sapiens (Human), UniProt Q8TCW9); assay: PKR1 antagonist assay: block of PK1-mediated intracellular calcium release (FLIPR Tetra); format: cell-based; details: RBL2H3 cells expressing human PKR1; stimulation with PK1 at EC80; calcium fluorescence
Sequence (Q8TCW9 whole entry): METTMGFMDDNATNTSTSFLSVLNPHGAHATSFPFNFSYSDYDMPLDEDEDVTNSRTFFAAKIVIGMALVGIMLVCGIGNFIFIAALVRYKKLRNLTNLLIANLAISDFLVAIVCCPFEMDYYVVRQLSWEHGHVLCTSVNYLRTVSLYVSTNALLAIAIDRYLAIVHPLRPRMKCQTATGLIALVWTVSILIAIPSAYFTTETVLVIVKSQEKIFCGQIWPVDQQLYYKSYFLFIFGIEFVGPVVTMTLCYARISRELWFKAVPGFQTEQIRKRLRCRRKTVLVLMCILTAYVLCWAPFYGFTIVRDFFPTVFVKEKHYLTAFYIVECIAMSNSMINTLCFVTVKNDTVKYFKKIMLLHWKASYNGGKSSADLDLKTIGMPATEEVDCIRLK
Method: Prokineticin receptor 1 (PKR1) antagonists may be functionally assessed by measurement of change in intracellular calcium levels induced by Gq mediated increase in inositol triphosphate (IP3) levels. The ability of a compound to block the intracellular release of calcium mediated by PK1 in RBL2H3 cells expressing human PKR1 receptors is determined as a measure of the compound's antagonist activity in vitro.
Approximately 10,000 cells per assay well are seeded in normal culture medium in a 384 well plate (Corning). Twenty-four hours after seeding, the cells are loaded with a calcium sensitive fluorescent dye by replacing the culture medium with assay buffer (1× Hanks buffered saline, 25 mM HEPES, 0.1% w/v fatty acid free BSA (bovine serum albumin), pH 7.4) containing 1 mM probenecid and 1× Calcium 5 Reagent (Molecular Devices). Cells are incubated at 37° C. for 1 hour to allow for dye uptake.
To test for antagonist activity, test compounds at a final concentration range between 0.32 nM-10 μM (diluted in assay buffer) are added to the assay wells and allowed to incubate for 10 minutes prior to stimulation with PK1. After incubation with test compounds the assay plate is placed in a FLIPR Tetra (Molecular Devices) and PK1 (diluted in assay buffer) is added at the determined EC80 concentration (final). Ligand-dependent changes in intracellular calcium levels are determined by measuring changes in fluorescence of the dye at […] following excitation at 485 nm.

Going from `CN(C)c1cc(C(=O)N2CCCC(c3ccc(C(F)(F)F)cc3)C2)ccn1` (stereo not shown) [Example 44, N,N-Dimethyl-4-({3-[4-(trifluoromethyl)phenyl]piperidin-1-yl}carbonyl)pyridin-2-amine formate] to `CN(C)c1cc(C(=O)N2CCCC(c3ccc(Cl)cc3)C2)ccn1` (stereo not shown) [Example 16, 4-{[3-(4-Chlorophenyl)piperidin-1-yl]carbonyl}-N,N-dimethylpyridin-2-amine], the IC50 falls from 4400 nM to 270 nM (16-fold). The second is the more potent here.

Compared with `Cc1ccc(C2CCCN(C(=O)c3ccnc(N(C)C4CC4)c3)C2)cc1` (stereo not shown) [Example 43, N-Cyclopropyl-N-methyl-4-{[3-(4-methylphenyl)piperidin-1-yl]carbonyl}pyridin-2-amine], `Cc1ccc(C2CCCN(C(=O)c3ccnc(N(C)C)c3)C2)cc1` (stereo not shown) [Example 49, N,N-Dimethyl-4-{[3-(4-methylphenyl)piperidin-1-yl]carbonyl}pyridin-2-amine] is 17-fold lower in IC50: 7050 nM for the first, 420 nM for the second. The second is the more potent here.

Going from `CNc1cc(C(=O)N2CCCC(c3ccccc3C(F)(F)F)C2)ccn1` (stereo not shown) [Example 54, N-Methyl-4-({3-[2-(trifluoromethyl)phenyl]piperidin-1-yl}carbonyl)pyridin-2-amine] to `CNc1cc(C(=O)N2CCCC(c3ccccc3OC)C2)ccn1` (stereo not shown) [Example 56, 4-{[3-(2-Methoxyphenyl)piperidin-1-yl]carbonyl}-N-methylpyridin-2-amine], the IC50 rises from 230 nM to 440 nM (1.9-fold). The first is the more potent here.

Going from `CN(C)c1cc(C(=O)N2CCCC(c3ccc(Cl)cc3Cl)C2)ccn1` (stereo not shown) [Example 2, 4-{[3-(2,4-Dichlorophenyl)piperidin-1-yl]carbonyl}-N,N-dimethylpyridin-2-amine] to `Cc1cc(Cl)ccc1C1CCCN(C(=O)c2ccnc(N(C)C)c2)C1` (stereo not shown) [Example 24, 4-{[3-(4-Chloro-2-methylphenyl)piperidin-1-yl]carbonyl}-N,N-dimethylpyridin-2-amine], the IC50 falls from 190 nM to 30 nM (6.3-fold).

Compared with `Cn1cc(C(=O)N2CCCC(c3ccc(Cl)cc3C(F)(F)F)C2)cn1` (stereo not shown) [Example 97, 3-[4-Chloro-2-(trifluoromethyl)phenyl]-1-[(1-methyl-1H-pyrazol-4-yl)carbonyl]piperidine], `CC(C)n1cc(C(=O)N2CCCC(c3ccc(Cl)cc3C(F)(F)F)C2)cn1` (stereo not shown) [Example 99, 3-[4-Chloro-2-(trifluoromethyl)phenyl]-1-{[1-(propan-2-yl)-1H-pyrazol-4-yl]carbonyl}piperidine] is 3.3-fold higher in IC50: 100 nM for the first, 330 nM for the second. The first is the more potent here.

`COc1cc(C(=O)N2CCCC(c3ccc(Cl)cc3C)C2)ccn1` (stereo not shown) [Example 32, 4-{[3-(4-Chloro-2-methylphenyl)piperidin-1-yl]carbonyl}-2-methoxypyridine] and `Cc1cc(C(=O)N2CCCC(c3ccc(Cl)cc3C)C2)ccn1` (stereo not shown) [Example 5, 4-{[3-(4-Chloro-2-methylphenyl)piperidin-1-yl]carbonyl}-2-methylpyridine] are within 1.5-fold of each other in IC50: 490 nM for the first, 450 nM for the second.

Going from `CN(C)c1cc(C(=O)N2CCCC(O)(c3ccc(F)cc3)C2)ccn1` (stereo not shown) [Example 117, 1-{[2-(Dimethylamino)pyridin-4-yl]carbonyl}-3-(4-fluorophenyl)piperidin-3-ol] to `Cc1ccc(C2CCCN(C(=O)c3ccnc(N(C)C)c3)C2)cc1` (single isomer, unassigned) [Example 50, N,N-Dimethyl-4-{[3-(4-methylphenyl)piperidin-1-yl]carbonyl}pyridin-2-amine], the IC50 falls from 3940 nM to 990 nM (4-fold).

Compared with `CC(C)c1cc(C(=O)N2CCCC(c3ccc(Cl)cc3)C2)ccn1` (stereo not shown) [Example 30, 4-{[3-(4-Chlorophenyl)piperidin-1-yl]carbonyl}-2-(propan-2-yl)pyridine], `O=C(c1ccnc(Cl)c1)N1CCCC(c2ccc(Cl)cc2)C1` (stereo not shown) [Example 29, 2-Chloro-4-{[3-(4-chlorophenyl)piperidin-1-yl]carbonyl}pyridine] is 4-fold higher in IC50: 830 nM for the first, 3290 nM for the second.

Compared with `CNc1cc(C(=O)N2CCCC(c3ccc(Cl)cc3C)C2)ccn1` (stereo not shown) [Example 31, 4-{[3-(4-Chloro-2-methylphenyl)piperidin-1-yl]carbonyl}-N-methylpyridin-2-amine], `CCOc1cc(Cl)ccc1C1CCCN(C(=O)c2ccnc(NC)c2)C1` (stereo not shown) [Example 65, 4-{[3-(4-Chloro-2-ethoxyphenyl)piperidin-1-yl]carbonyl}-N-methylpyridin-2-amine] is 2.3-fold higher in IC50: 30 nM for the first, 70 nM for the second. The first is the more potent here.

First: CCn1cc(C(=O)N2CCCC(c3ccc(Cl)cc3C)C2)cn1 (stereo not shown) [Example 92, 3-(4-Chloro-2-methylphenyl)-1-[(1-ethyl-1H-pyrazol-4-yl)carbonyl]piperidine]
Second: Cc1cc(Cl)ccc1C1CCCN(C(=O)c2cnn(C(C)C)c2)C1 (stereo not shown) [Example 93, 3-(4-Chloro-2-methylphenyl)-1-{[1-(propan-2-yl)-1H-pyrazol-4-yl]carbonyl}piperidine]
The IC50 of the first is 1.6-fold lower: 110 nM for the first, 180 nM for the second.

Going from `CCOc1cc(Cl)ccc1C1CCCN(C(=O)c2cnnc(NC)c2)C1` (stereo not shown) [Example 83, 5-{[3-(4-Chloro-2-ethoxyphenyl)piperidin-1-yl]carbonyl}-N-methylpyridazin-3-amine] to `CN(C)c1cc(C(=O)N2CCCC(c3ccc(Cl)cc3C(F)(F)F)C2)cnn1` (stereo not shown) [Example 75, 5-({3-[4-Chloro-2-(trifluoromethyl)phenyl]piperidin-1-yl}carbonyl)-N,N-dimethylpyridazin-3-amine], the IC50 falls from 170 nM to 110 nM (1.5-fold).

`O=C(c1ccnc(N2CCC2)c1)N1CCCC(c2ccc(Cl)cc2)C1` (stereo not shown) [Example 22, 2-(Azetidin-1-yl)-4-{[3-(4-chlorophenyl)piperidin-1-yl]carbonyl}pyridine] and `Cc1ccc(C2CCCN(C(=O)c3ccnc(N4CCC4)c3)C2)cc1` (stereo not shown) [Example 21, 2-(Azetidin-1-yl)-4-{[3-(4-methylphenyl)piperidin-1-yl]carbonyl}pyridine] are within 1.5-fold of each other in IC50: 1040 nM for the first, 1200 nM for the second.

First: CCc1cc(C(=O)N2CCCC(c3ccc(Cl)cc3)C2)ccn1 (stereo not shown) [Example 52, 4-{[3-(4-Chlorophenyl)piperidin-1-yl]carbonyl}-2-ethylpyridine]
Second: CNc1cc(C(=O)N2CCCC(c3ccc(Cl)cc3)C2)ccn1 (stereo not shown) [Example 27, 4-{[3-(4-Chlorophenyl)piperidin-1-yl]carbonyl}-N-methylpyridin-2-amine]
The IC50 of the first is 3.9-fold higher: 510 nM for the first, 130 nM for the second. The second is the more potent here.

`CCn1cc(C(=O)N2CCCC(c3ccc(Cl)cc3)C2)cn1` (stereo not shown) [Example 90, 3-(4-Chlorophenyl)-1-[(1-ethyl-1H-pyrazol-4-yl)carbonyl]piperidine] and `CN(C)c1cc(C(=O)N2CCCC(c3ccc(Cl)cc3)C2)cnn1` (stereo not shown) [Example 69, 5-{[3-(4-Chlorophenyl)piperidin-1-yl]carbonyl}-N,N-dimethylpyridazin-3-amine] are within 1.5-fold of each other in IC50: 660 nM for the first, 810 nM for the second.

`Cc1cc(Cl)cc(C)c1C1CCCN(C(=O)c2ccnc(N(C)C)c2)C1` (stereo not shown) [Example 68, 4-{[3-(4-Chloro-2,6-dimethylphenyl)piperidin-1-yl]carbonyl}-N,N-dimethylpyridin-2-amine] and `Cc1cccc(C2CCCN(C(=O)c3ccnc(N(C)C)c3)C2)c1` (stereo not shown) [Example 13, N,N-Dimethyl-4-{[3-(3-methylphenyl)piperidin-1-yl]carbonyl}pyridin-2-amine] are within 1.5-fold of each other in IC50: 1540 nM for the first, 1920 nM for the second.

Compared with `Cc1cc(Cl)ccc1C1=CN(C(=O)c2ccnc(N(C)C)c2)CCC1` [Example 105, 4-{[5-(4-Chloro-2-methylphenyl)-1,2,3,4-tetrahydropyridin-1-yl]carbonyl}-N,N-dimethylpyridin-2-amine], `CN(C)c1cc(C(=O)N2CCCCC(c3ccc(Cl)cc3)C2)ccn1` (stereo not shown) [Example 108, 4-{[3-(4-Chlorophenyl)azepan-1-yl]carbonyl}-N,N-dimethylpyridin-2-amine] is 12-fold higher in IC50: 270 nM for the first, 3230 nM for the second. The first is the more potent here.

`CNc1cc(C(=O)N2CCCCC(c3ccc(OC)cc3)C2)ccn1` (stereo not shown) [Example 110, 4-{[3-(4-Methoxyphenyl)azepan-1-yl]carbonyl}-N-methylpyridin-2-amine] and `CNc1cc(C(=O)N2CCCC(c3ccc(OC)cc3)C2)ccn1` (stereo not shown) [Example 55, 4-{[3-(4-Methoxyphenyl)piperidin-1-yl]carbonyl}-N-methylpyridin-2-amine hemi formate] are within 1.5-fold of each other in IC50: 450 nM for the first, 350 nM for the second.

Going from `CN(C)c1cc(C(=O)N2CCCC(c3ccc(Cl)cc3C(F)(F)F)C2)ccn1` (stereo not shown) [Example 7, 4-({3-[4-Chloro-2-(trifluoromethyl)phenyl]piperidin-1-yl}carbonyl)-N,N-dimethylpyridin-2-amine] to `CN(C)c1cc(C(=O)N2CCCC(c3ccccc3Cl)C2)ccn1` (stereo not shown) [Example 46, 4-{[3-(2-Chlorophenyl)piperidin-1-yl]carbonyl}-N,N-dimethylpyridin-2-amine], the IC50 rises from 100 nM to 7790 nM (78-fold). The first is the more potent here.

`Cc1nn(C)cc1C(=O)N1CCCC(c2ccc(Cl)cc2C(F)(F)F)C1` (stereo not shown) [Example 103, 3-[4-Chloro-2-(trifluoromethyl)phenyl]-1-[(1,3-dimethyl-1H-pyrazol-4-yl)carbonyl]piperidine] and `Cn1cc(C(=O)N2CCCC(c3ccc(Cl)cc3C(F)(F)F)C2)c(N)n1` (single isomer, unassigned) [Example 119, 4-({3-[4-Chloro-2-(trifluoromethyl)phenyl]piperidin-1-yl}carbonyl)-1-methyl-1H-pyrazol-3-amine] are within 1.5-fold of each other in IC50: 490 nM for the first, 330 nM for the second.

Going from `CN(C)c1cc(C(=O)N2CCCC(c3ccccc3)C2)ccn1` (stereo not shown) [Example 15, N,N-Dimethyl-4-[(3-phenylpiperidin-1-yl)carbonyl]pyridin-2-amine] to `COc1cc(C(=O)N2CCCC(c3ccc(C)cc3)C2)ccn1` (stereo not shown) [Example 34, 2-Methoxy-4-{[3-(4-methylphenyl)piperidin-1-yl]carbonyl}pyridine], the IC50 rises from 1140 nM to 5270 nM (4.6-fold).
